Laboratory results published in article PMC10143306, “Seven New Lobane Diterpenoids from the Soft Coral Lobophytum catalai” (Marine Drugs, 2023).
Like-named read-outs stand apart in the source and are kept apart here.

Key:
[1] = system: CuSO4-induced transgenic fluorescent zebrafish (Tg: zlyz-EGFP); assay: Anti-inflammatory assay in CuSO4-induced transgenic fluorescent zebrafish (macrophage count around neuromasts); assay type: in vivo; conditions: for Number of macrophages around nerve mound (mean ± SEM): Table S15
Experimental: On account of the fact that research on the anti-inflammatory activity of lobane diterpenoids in zebrafish models has not been reported up to now, we attempted to identify lobane diterpenoids with anti-inflammatory activity in zebrafish models. The anti-inflammatory effect of compounds 1–7 was assessed in CuSO4-induced transgenic fluorescent zebrafish. CuSO4 can produce an intense acute inflammatory response in the neuromasts and mechanosensorial cells in the lateral line of zebrafish, stimulating the infiltration of macrophages. Thus, the number of macrophages surrounding the neuromasts in zebrafish can be observed and counted under a fluorescence microscope. Therefore, the anti-inflammatory activity of these lobane diterpenoids can be evaluated.
Figure 5 Anti-inflammatory assays of compounds 1–7. (a) Images of inflammatory sites in CuSO4-induced transgenic fluorescent zebrafish (Tg: zlyz-EGFP) expressing enhanced green fluorescent protein (EGFP) treated with compounds 1–7, using indomethacin as a positive control.
Healthy macrophage fluorescent transgenic zebrafish (Tg: zlyz-EGFP) were provided by the Biology Institute of Shandong Academy of Science (Jinan, China). The zebrafish maintenance and anti-inflammation assay were carried out as previously described. Each zebrafish larva was photographed using a fluorescence microscope (AXIO, Zom.V16), and the number of macrophages around the nerve mound was calculated using Image-Pro Plus 6.0 software (Rockville, MD, USA). One-way analysis of variance was conducted using GraphPad Prism 7.00 software (San Diego, CA, USA). Lobocatalens A–G (1–7) were tested for anti-inflammatory activities in the zebrafish models. Three dpf (days post-fertilization), healthy macrophage fluorescent transgenic zebrafish were used as animal models to evaluate the anti-inflammatory effects of compounds 1–7.

[2] = Cytotoxicity assay, MTT method, K562; assay type: cell-based, human; conditions: human, K562 leukemia cells; K562 cell line, MTT method; read-out: Cytotoxic activity (IC50)
Experimental: (§1) Moreover, the cytotoxic activity of these isolated compounds (1–7) was evaluated against the human leukemia K562, normal human hepatocyte L-02, human pancreatic cancer ASPC-1, and human breast cancer MDA-MB-231 cell lines.
(§2) The MTT method was used to evaluate cytotoxicity against the K562 (human leukemia) cell line, and the SRB method was used to evaluate cytotoxicity against the L-02 (normal human hepatocytes), ASPC-1 (human pancreatic cancer), and MDA-MB-231 (human breast cancer) cell lines. As a positive control, Adriamycin (doxorubicin) was used.

[3] = system: K562 (human leukemia) cell line; assay: Cytotoxicity assay, MTT method, K562; assay type: cell-based; conditions: Homo sapiens, read-out: Inhibition rate (%); for inhibition at 30 µM: K562, K562, 30 μM; for inhibition at 1 µM: K562, K562, 1 μM, positive control
Experimental: as §1, §2

[4] = Cytotoxicity assay, SRB method, L-02; assay type: cell-based, human; conditions: human, L-02 normal hepatocyte cells; L-02 cell line, SRB method; read-out: Cytotoxic activity (IC50)
Experimental: as §1, §2

[5] = system: L-02 (normal human hepatocytes) cell line; assay: Cytotoxicity assay, SRB method, L-02; assay type: cell-based; conditions: Homo sapiens, Hepatocyte, Table S16, read-out: Inhibition rate (%); for inhibition at 30 µM: L-02, 30 μM
Experimental: as §1, §2

[6] = Cytotoxicity assay, SRB method, MDA-MB-231; assay type: cell-based, human; conditions: human, MDA-MB-231 breast cancer cells; MDA-MB-231 cell line, SRB method; read-out: Cytotoxic activity (IC50)
Experimental: as §1, §2

[7] = system: MDA-MB-231 (human breast cancer) cell line; assay: Cytotoxicity assay, SRB method, MDA-MB-231; assay type: cell-based; conditions: Homo sapiens, Table S16, read-out: Inhibition rate (%); for inhibition at 30 µM: MDA-MB-231, 30 μM
Experimental: as §1, §2

[8] = Cytotoxicity assay, SRB method, ASPC-1; assay type: cell-based, human; conditions: human, ASPC-1 pancreatic cancer cells; ASPC-1 cell line, SRB method; read-out: Cytotoxic activity (IC50)
Experimental: as §1, §2

[9] = system: ASPC-1 (human pancreatic cancer) cell line; assay: Cytotoxicity assay, SRB method, ASPC-1; assay type: cell-based; conditions: Homo sapiens, ASPC1, Table S16, read-out: Inhibition rate (%); for inhibition at 30 µM: ASPC-1, 30 μM
Experimental: as §1, §2

[10] = Danio rerio, Macrophage, 20 μM, Table S15, read-out: Inhibition rate

SMILES | Number of macrophages around nerve mound (mean ± SEM) ([1]; 20 μM) | inhibition at 20 µM [1, 10] [%] | IC50 [2] [µM] | inhibition at 30 µM ([3]; Table S16) [%] | IC50 [4] [µM] | inhibition at 30 µM [5] [%] | IC50 [6] [µM] | inhibition at 30 µM [7] [%] | IC50 [8] [µM] | inhibition at 30 µM [9] [%] | further results
C=CC1(C)CCC(C2=CCC(C(C)(C)O)OC2O)CC1C(=C)C (stereo not drawn) [Compound 2, Lobocatalen B] | 30.00 ± 3.047 | 5.93 | > 30 | 48.7 | > 30 | 30.2 | > 30 | 24.2 | – | – | –
COc1cccc2c1C(=O)c1c(O)c3c(c(O)c1C2=O)C[C@@](O)(C(=O)CO)C[C@@H]3O[C@H]1C[C@H](N)[C@H](O)[C@H](C)O1 [doxorubicin, reference compound] | – | – | < 1 | – | < 1 | – | < 1 | – | < 1 | – | inhibition at 1 µM ([3]; Table S16): 100%; inhibition at 1 µM ([3]; Table S17): 100%; inhibition at 1 µM ([5]; L-02, 1 μM, positive control): 83%; inhibition at 1 µM ([9]; ASPC-1, 1 μM, positive control): 52%; inhibition at 1 µM ([7]; MDA-MB-231, 1 μM, positive control): 55.9%
C=CC1(C)CCC(C2=CCC3OC2OC3(C)C)CC1C(=C)C (stereo not drawn) [Compound 1, Lobocatalen A] | 25.67 ± 3.14 | 19.5 | > 30 | 39.9 | > 30 | 24.9 | > 30 | 21.9 | – | – | –
C=CC1(C)CCC(C(=O)C=CC(OC(C)=O)C(C)(C)O)CC1C(=C)C (stereo not drawn) [Compound 7, Lobocatalen G] | 18.6 ± 1.805 | 41.7 | 28 | 63.5 | > 30 | 29.8 | > 30 | 10.4 | > 30 | 17.5 | Anti-inflammatory activity (in words) ([1]; 20 μM, migration and number of macrophages surrounding the neuromasts): moderate anti-inflammatory activity; inhibition at 0.9375 µM ([3]; K562, K562, 0.9375 μM, Table S17): 5.87%; inhibition at 1.875 µM ([3]; K562, K562, 1.875 μM, Table S17): 9.55%; inhibition at 3.75 µM ([3]; K562, K562, 3.75 μM, Table S17): 11.6%; inhibition at 7.5 µM ([3]; K562, K562, 7.5 μM, Table S17): 15.5%; inhibition at 15 µM ([3]; K562, K562, 15 μM, Table S17): 21%; inhibition at 30 µM ([3]; Table S17): 73.3%
C=CC1(C)CCC(C(C)=CC=CC(C)=O)CC1C(=C)C (stereo not drawn) [Compound 6, Lobocatalen F] | 26.2 ± 2.356 | 17.8 | – | – | > 30 | 25.4 | – | – | – | – | –
C=CC1(C)CCC(C2=COC(C(C)(C)O)CC2=O)CC1C(=C)C (stereo not drawn) [Compound 3, Lobocatalen C] | 25.30 ± 1.904 | 20.7 | > 30 | 43.5 | > 30 | 22.1 | > 30 | 19.9 | > 30 | 18.6 | –
C=CC1(C)CCC(C(C)=CC(=O)CC(C)(C)O)CC1C(=C)C (stereo not drawn) [Compound 4, Lobocatalen D] | 22.22 ± 2.737 | 30.3 | > 30 | 36.7 | > 30 | 21.6 | > 30 | 18.4 | > 30 | 18.9 | –
COc1ccc2c(c1)c(CC(=O)O)c(C)n2C(=O)c1ccc(Cl)cc1 [Indomethacin, reference compound] | – | – | – | – | – | – | – | – | – | – | Number of macrophages around nerve mound (mean ± SEM) ([1]; 40 μM, positive control): 11.88 ± 1.575; inhibition at 40 µM ([1]; Danio rerio, Macrophage, 40 μM, positive control, Table S15, read-out: Inhibition rate): 62.8%
C=CC1(C)CCC(C(=C)CCC(=O)C(C)(C)O)CC1C(=C)C (stereo not drawn) [Compound 5, Lobocatalen E] | 21.89 ± 3.199 | 31.4 | > 30 | 34.3 | – | – | – | – | – | – | –
